Measurements reported in patent EP0385679B1, “Heterocyclic cyclic ethers with inhibitory activity on 5-lipoxygenase” (ZENECA LIMITED, priority 1989, dated 1990).

What was measured:
5-LO = target: T1, 5-LO (Homo sapiens, UniProt P09917); test: Test b): heparinised human blood challenged with A23187, radioimmunoassay of LTB₄; assay type: cell-based; details: heparinised human blood, calcium ionophore A23187 challenge; read-out: IC₅₀ against LTB₄ in test b)
T1 construct: incubating a test compound with heparinised human blood, prior to challenge with the calcium ionophore A23187; endogenous in cells; host or cells: human whole blood (heparinised), blood cells
T1 sequence (P09917 1-674): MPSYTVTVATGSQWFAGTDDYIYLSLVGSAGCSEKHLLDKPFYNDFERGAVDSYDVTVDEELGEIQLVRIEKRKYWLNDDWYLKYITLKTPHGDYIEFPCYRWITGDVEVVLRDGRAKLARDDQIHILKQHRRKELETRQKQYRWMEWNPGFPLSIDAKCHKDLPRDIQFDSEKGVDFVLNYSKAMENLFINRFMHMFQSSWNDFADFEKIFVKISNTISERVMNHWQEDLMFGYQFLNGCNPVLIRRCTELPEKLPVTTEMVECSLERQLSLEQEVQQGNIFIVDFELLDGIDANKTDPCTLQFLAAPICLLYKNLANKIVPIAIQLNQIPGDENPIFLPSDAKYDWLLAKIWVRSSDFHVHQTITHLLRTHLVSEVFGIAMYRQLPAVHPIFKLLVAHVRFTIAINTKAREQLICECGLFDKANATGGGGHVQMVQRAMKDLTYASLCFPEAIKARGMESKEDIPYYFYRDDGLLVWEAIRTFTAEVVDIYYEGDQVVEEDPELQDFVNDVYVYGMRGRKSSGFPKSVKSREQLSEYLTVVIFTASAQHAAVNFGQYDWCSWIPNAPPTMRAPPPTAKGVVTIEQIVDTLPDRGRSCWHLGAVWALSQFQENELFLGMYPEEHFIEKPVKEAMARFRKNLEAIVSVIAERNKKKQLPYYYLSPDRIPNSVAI
Description: (§1) As stated previously, the heterocyclic cyclic ethers of the formula I are inhibitors of the enzyme 5-LO. […] This test provides a measure of the intrinsic inhibitory properties against soluble 5-LO in an extracellular environment. • b) An in vitro assay system involving incubating a test compound with heparinised human blood, prior to challenge with the calcium ionophore A23187 and then indirectly measuring the inhibitory effects on 5-LO by assaying the amount of LTB₄ using the specific radioimmunoassay described by Carey and Forder (F. Carey and R.A. Forder, Brit. […] The effects of a test compound on the enzyme cyclooxygenase (which is involved in the alternative metabolic pathway for arachidonic acid and gives rise to prostaglandins, thromboxanes and related metabolites) may be measured at the same time using the specific radioimmunoassay for thromboxane B₂(TxB₂) described by Carey and Forder (see above). […] It permits the selectivity of the inhibitory effect on 5-LO or cyclooxygenase to be assessed. • c) An ex vivo assay system, which is a variation of test b) above, involving administration of a test compound (usually orally as the suspension produced when a solution of the test compound in dimethylsulphoxide is added to carboxymethylcellulose), blood collection, heparinisation, challenge with A23187 and radioimmunoassay of LTB₄ and TxB₂. […]

cyclooxygenase = target: T2, cyclooxygenase (Homo sapiens, UniProt P23219); test: Test b): heparinised human blood challenged with A23187, radioimmunoassay of TxB₂; assay type: cell-based; details: heparinised human blood, calcium ionophore A23187 challenge; read-out: IC₅₀ against TxB₂ in test b)
T2 construct: may be measured at the same time using the specific radioimmunoassay for thromboxane B₂(TxB₂); endogenous in cells; host or cells: human whole blood (heparinised), blood cells
Description: as §1

T2 sequence (P23219 24-599): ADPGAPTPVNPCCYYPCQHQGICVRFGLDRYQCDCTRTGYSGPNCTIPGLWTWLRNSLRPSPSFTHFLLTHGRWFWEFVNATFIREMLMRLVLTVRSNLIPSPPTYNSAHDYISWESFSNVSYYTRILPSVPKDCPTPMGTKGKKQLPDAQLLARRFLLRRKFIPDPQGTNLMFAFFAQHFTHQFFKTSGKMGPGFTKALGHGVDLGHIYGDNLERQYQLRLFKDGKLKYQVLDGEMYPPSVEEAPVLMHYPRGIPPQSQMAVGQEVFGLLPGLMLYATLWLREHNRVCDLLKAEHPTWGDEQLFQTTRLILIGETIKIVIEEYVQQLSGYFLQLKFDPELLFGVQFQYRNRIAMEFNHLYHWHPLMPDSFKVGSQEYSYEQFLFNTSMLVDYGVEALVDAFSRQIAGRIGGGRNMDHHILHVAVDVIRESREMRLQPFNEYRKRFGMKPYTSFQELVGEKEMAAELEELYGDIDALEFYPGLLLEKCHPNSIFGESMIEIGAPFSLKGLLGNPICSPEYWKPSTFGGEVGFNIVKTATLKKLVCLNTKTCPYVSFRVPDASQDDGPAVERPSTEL

Row | SMILES | IC50 (5-LO) [nM] | IC50 (cyclooxygenase) [nM]
1 | CCC1(c2cccc(OCC#Cc3ccccn3)c2)COC(C)(C)O1 (stereo not drawn) [2,2-dimethyl-4-ethyl-4-[3-(3-(2-pyridyl)prop-2-yn-1-yloxy)phenyl]-1,3-dioxolane] | 800 | > 40000
2 | CCC1(c2cc(F)cc(OCc3ccc4c(ccc(=O)n4C)c3)c2)COC(C)(C)O1 (stereo not drawn) [4-ethyl-4-[5-fluoro-3-(1,2-dihydro-1-methyl-2-oxoquinolin-6-ylmethoxy)phenyl]-2,2-dimethyl-1,3-dioxolane] | 80 | –
